pIC50: −log10 of the molar value.
Assays:
[1] = molecular target: Tyrosyl-DNA phosphodiesterase 1 (Homo sapiens, UniProt Q9NUW8); experiment: Inhibition of Tdp1 (unknown origin) using 5'-[FAM]AACGTCAGGGTCTTCC[BHQ1]-3' as substrate measured every 55 sec by fluorescence based analysis
A549 = experiment: Cytotoxicity against human A549 cells incubated for 72 hrs by MTT assay; assay type: functional
HCT-116 = experiment: Cytotoxicity against human HCT-116 cells incubated for 72 hrs by MTT assay; assay type: functional
[2] = Cytotoxicity against human HeLa-V cells incubated for 72 hrs by MTT assay; assay type: functional
HepG2 = experiment: Cytotoxicity against human HepG2 cells incubated for 72 hrs by MTT assay; assay type: functional
MCF7 = experiment: Cytotoxicity against human MCF7 cells incubated for 72 hrs by MTT assay; assay type: functional
MDA-MB-231 = experiment: Cytotoxicity against human MDA-MB-231 cells incubated for 72 hrs by MTT assay; assay type: functional
MDA-MB-453 = experiment: Cytotoxicity against human MDA-MB-453 cells incubated for 72 hrs by MTT assay; assay type: functional
[3] = Cytotoxicity against human Mel-MS cells incubated for 72 hrs by MTT assay; assay type: functional
RD = experiment: Cytotoxicity against human RD cells incubated for 72 hrs by MTT assay; assay type: functional
PC-3 = experiment: Cytotoxicity against human PC-3 cells incubated for 72 hrs by MTT assay; assay type: functional
[4] = Cytotoxicity against HEK293 cells incubated for 72 hrs by MTT assay; assay type: toxicity, cell-based; conditions: human
[5] = Cytotoxicity against human MCF-10A cells incubated for 72 hrs by MTT assay; assay type: toxicity, cell-based
[6] = Cytotoxicity against human HeLa-V cells assessed as reduction in cell viability incubated for 72 hrs in presence of 0.5 uM topotecan by MTT assay; assay type: functional
[7] = Cytotoxicity against human HeLa-V cells assessed as cell viability at <=12.5 uM incubated for 72 hrs in presence of 0.5 uM topotecan by MTT assay relative to control; assay type: functional; conditions: up to 12.5 µM
[8] = Sensitization of topotecan-induced cytotoxicity against human HeLa-V cells assessed as reduction in cell viability by measuring fold change in topotecan CC50 at 10 uM incubated for 72 hrs by MTT assay relative to topotecan alone; assay type: functional

Chain of Tyrosyl-DNA phosphodiesterase 1 (Q9NUW8 whole entry): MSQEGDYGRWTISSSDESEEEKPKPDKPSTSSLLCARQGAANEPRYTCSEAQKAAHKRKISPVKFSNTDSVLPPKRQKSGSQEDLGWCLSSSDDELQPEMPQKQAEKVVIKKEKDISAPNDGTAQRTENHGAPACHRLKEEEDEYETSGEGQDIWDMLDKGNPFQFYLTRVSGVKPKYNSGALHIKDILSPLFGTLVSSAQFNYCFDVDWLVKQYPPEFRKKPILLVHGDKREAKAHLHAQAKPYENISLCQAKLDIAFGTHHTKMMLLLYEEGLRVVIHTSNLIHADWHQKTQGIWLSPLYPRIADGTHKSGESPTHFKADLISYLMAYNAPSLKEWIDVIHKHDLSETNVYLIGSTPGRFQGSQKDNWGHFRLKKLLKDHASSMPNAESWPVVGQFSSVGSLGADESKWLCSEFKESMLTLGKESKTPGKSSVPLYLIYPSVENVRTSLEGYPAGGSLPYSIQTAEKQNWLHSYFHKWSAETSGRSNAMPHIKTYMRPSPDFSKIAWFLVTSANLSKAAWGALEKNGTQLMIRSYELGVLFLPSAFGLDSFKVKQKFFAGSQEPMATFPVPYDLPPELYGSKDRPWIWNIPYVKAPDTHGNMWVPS

Row | SMILES | pIC50 [1] | CC50 (A549) [µM] | CC50 (HCT-116) [µM] | CC50 [2] [µM] | CC50 (HepG2) [µM] | CC50 (MCF7) [µM] | CC50 (MDA-MB-231) [µM] | CC50 (MDA-MB-453) [µM] | CC50 [3] [µM] | CC50 (RD) [µM] | CC50 (PC-3) [µM] | CC50 at 72 h [4] [µM] | CC50 at 72 h [5] [µM] | CC50 [6] [µM] | Activity [7] [%] | fold change (FC) [8]
1 | CC1(C)CC[C@]23CC[C@]4(C)[C@H](CC[C@@H]5[C@@]6(C)O[C@@H](CC#N)C(C)(C)[C@@H]6CC[C@]54C)[C@H]2[C@H]1OC3 | 5.10 | – | – | – | – | – | – | – | – | – | – | – | – | – | – | –
2 | CC(C)[C@@H]1CC[C@]2(COC(=O)c3ccccc3)CC[C@]3(C)[C@H](CC[C@@H]4[C@@]5(C)O[C@H](CC#N)C(C)(C)[C@@H]5CC[C@]43C)[C@@H]12 | 4.92 | > 100 | > 100 | > 100 | > 100 | > 100 | > 100 | > 100 | > 100 | > 100 | > 100 | > 100 | > 100 | – | – | –
3 | CC(C)[C@@H]1CC[C@]2(CO)CC[C@]3(C)[C@H](CC[C@@H]4[C@@]5(C)/C(=N/O)C[C@@H](O)C(C)(C)[C@@H]5CC[C@]43C)[C@@H]12 | 5.54 | > 100 | 57.4 | > 100 | > 100 | > 100 | > 100 | > 100 | > 100 | > 100 | > 100 | > 100 | > 100 | – | – | –
4 | CC(C)[C@@H]1CC[C@]2(COC(=O)c3ccccc3)CC[C@]3(C)[C@H](CC[C@@H]4[C@@]5(C)CC[C@H](O)C(C)(C)[C@@H]5CC[C@]43C)[C@@H]12 | – | > 100 | > 100 | > 100 | > 100 | > 100 | > 100 | > 100 | > 100 | > 100 | > 100 | > 100 | > 100 | – | – | –
5 | CC1(C)CC[C@]23CC[C@]4(C)[C@H](CC[C@@H]5[C@@]6(C)O[C@H](CC#N)C(C)(C)[C@@H]6CC[C@]54C)[C@H]2[C@H]1OC3 | 5.44 | 34 | 90.3 | > 100 | > 100 | 84.9 | > 100 | > 100 | > 100 | > 100 | > 100 | > 100 | > 100 | – | – | –
6 | COc1cccc2c1C(=O)c1c(O)c3c(c(O)c1C2=O)C[C@@](O)(C(=O)CO)C[C@@H]3O[C@H]1C[C@H](N)[C@H](O)[C@H](C)O1 [DOXORUBICIN] | – | 2 | 1.3 | 2.67 | 1.8 | 0.4 | 0.34 | 0.04 | 1.3 | 1.3 | 12.6 | 0.4 | 0.5 | – | – | –
7 | CC(C)[C@@H]1CC[C@]2(COC(=O)c3ccccc3)CC[C@]3(C)[C@H](CC[C@@H]4[C@@]5(C)OC(CC#N)C(C)(C)[C@@H]5CC[C@]43C)[C@@H]12 (mixture of isomers) | 5.15 | 58.6 | > 100 | > 100 | > 100 | > 100 | > 100 | > 100 | > 100 | > 100 | > 100 | > 100 | > 100 | – | – | –
8 | CC(C)[C@@H]1CC[C@]2(COC(=O)c3ccccc3)CC[C@]3(C)[C@H](CC[C@@H]4[C@@]5(C)C(=O)[C@H]6O[C@H]6C(C)(C)[C@@H]5CC[C@]43C)[C@@H]12 | 5.52 | > 100 | > 100 | > 100 | > 100 | > 100 | > 100 | > 100 | > 100 | > 100 | > 100 | > 100 | > 100 | – | – | –
9 | CC1(C)CC[C@]23CC[C@]4(C)C(CC[C@@H]5C(=O)C(C(C)(C)[C@H](CC#N)OC(=O)Cl)CC[C@]54C)[C@H]2[C@H]1OC3 (some centres not stated) | < 4.00 | > 100 | > 100 | > 100 | > 100 | > 100 | > 100 | > 100 | > 100 | > 100 | > 100 | > 100 | > 100 | – | – | –
10 | CC[C@@]1(O)C(=O)OCc2c1cc1n(c2=O)Cc2cc3c(CN(C)C)c(O)ccc3nc2-1 [TOPOTECAN] | – | – | – | 0.456 | – | – | – | – | – | – | – | – | – | – | – | –
11 | CC(C)[C@@H]1CC[C@]2(COC(=O)c3ccccc3)CC[C@]3(C)[C@H](CC[C@@H]4[C@@]5(C)/C(=N/O)C[C@@H](O)C(C)(C)[C@@H]5CC[C@]43C)[C@@H]12 | 5.54 | 57.7 | > 100 | > 100 | > 100 | > 100 | > 100 | > 100 | > 100 | > 100 | > 100 | > 100 | > 100 | – | – | –
12 | C=C1[C@H](C(C)(C)[C@@H](O)CC#N)CC[C@]2(C)[C@@H]1CC[C@@H]1[C@H]3[C@H](C(C)C)CC[C@]3(COC(=O)c3ccccc3)CC[C@]12C | 5.71 | > 100 | > 100 | > 100 | > 100 | > 100 | > 100 | > 100 | > 100 | > 100 | > 100 | > 100 | > 100 | ≤ 35.1 | ~80 | <1.5
13 | CC(C)[C@@H]1CC[C@]2(CO)CC[C@]3(C)[C@H](CC[C@@H]4[C@@]5(C)O[C@H](CC#N)C(C)(C)[C@@H]5CC[C@]43C)[C@@H]12 | 6.00 | 89.9 | > 100 | 31.6 | > 200 | 39.2 | > 100 | > 100 | > 100 | 79 | > 100 | > 100 | > 100 | 14.8 | ~80 | –
14 | CC(C)[C@@H]1CC[C@]2(COC(=O)c3ccccc3)CC[C@]3(C)[C@H](CC[C@@H]4[C@@]5(C)[C@@H](O)C=CC(C)(C)[C@@H]5CC[C@]43C)[C@@H]12 | 5.05 | > 100 | > 100 | > 100 | > 100 | > 100 | > 100 | > 100 | > 100 | > 100 | > 100 | > 100 | > 100 | – | – | –
15 | C=C1[C@H]2CC[C@@H]3[C@H]4[C@H](C(C)C)CC[C@]4(COC(=O)c4ccccc4)CC[C@@]3(C)[C@]2(C)CC[C@@H]1C(C)(C)[C@@H]1O[C@H]1C#N | 5.10 | > 100 | > 100 | > 100 | > 100 | > 100 | > 100 | > 100 | > 100 | > 100 | > 100 | > 100 | > 100 | – | – | –
16 | CC(C)[C@@H]1CC[C@]2(COCc3ccccc3)CC[C@]3(C)[C@H](CC[C@@H]4C(=O)C(C(C)(C)[C@H](CC#N)OC(=O)Cl)CC[C@]43C)[C@@H]12 (some centres not stated) | 4.92 | 56.9 | > 100 | > 100 | > 100 | > 100 | > 100 | > 100 | > 100 | > 100 | > 100 | > 100 | > 100 | – | – | –
17 | CC(C)[C@@H]1CC[C@]2(COC(=O)c3ccccc3)CC[C@]3(C)[C@H](CC[C@@H]4[C@@]5(C)CC=CC(C)(C)[C@@H]5CC[C@]43C)[C@@H]12 | < 4.00 | > 100 | > 100 | > 100 | > 100 | > 100 | > 100 | > 100 | > 100 | > 100 | > 100 | > 100 | > 100 | – | – | –
18 | CC(C)[C@@H]1CC[C@]2(COC(=O)c3ccccc3)CC[C@]3(C)[C@H](CC[C@@H]4[C@@]5(C)/C(=N/O)[C@H]6O[C@H]6C(C)(C)[C@@H]5CC[C@]43C)[C@@H]12 | 5.70 | > 100 | > 100 | 28 | > 100 | > 100 | > 100 | > 100 | > 100 | > 100 | 62.2 | > 100 | > 100 | 13.1 | – | –
19 | CC(C)[C@@H]1CC[C@]2(COC(=O)c3ccccc3)CC[C@]3(C)[C@H](CC[C@@H]4[C@@]5(C)[C@@H](O)[C@H]6O[C@H]6C(C)(C)[C@@H]5CC[C@]43C)[C@@H]12 | 5.29 | > 100 | > 100 | > 100 | > 100 | > 100 | > 100 | > 100 | > 100 | > 100 | > 100 | > 100 | > 100 | – | – | –

Source: ChEMBL document CHEMBL5608213, “Synthesis of furanotriterpenoids from betulin and evaluation of Tyrosyl-DNA phosphodiesterase 1 (Tdp1) inhibitory properties of new semi-synthetic triterpenoids” (Eur J Med Chem, 2024)
